According to patent US10508085B2, “Compounds and methods for IDO and TDO modulation, and indications therefor” (Plexxikon Inc., priority 2016, dated 2019):

What was measured:
[1] = target: T1, Human Tryptophan 2,3-dioxygenase (TDO) (Homo sapiens, UniProt P48775); test: Human TDO enzymatic assay (kynurenine level); format: biochemical; conditions: 1 nM TDO, 350 μM L-Trp; geometric mean; read-out: TDO GMean: IC50 (μM) (Biochemical Assay)
T1 construct: His tag (N); made in house; host or cells: E. coli
T1 sequence (P48775 whole entry): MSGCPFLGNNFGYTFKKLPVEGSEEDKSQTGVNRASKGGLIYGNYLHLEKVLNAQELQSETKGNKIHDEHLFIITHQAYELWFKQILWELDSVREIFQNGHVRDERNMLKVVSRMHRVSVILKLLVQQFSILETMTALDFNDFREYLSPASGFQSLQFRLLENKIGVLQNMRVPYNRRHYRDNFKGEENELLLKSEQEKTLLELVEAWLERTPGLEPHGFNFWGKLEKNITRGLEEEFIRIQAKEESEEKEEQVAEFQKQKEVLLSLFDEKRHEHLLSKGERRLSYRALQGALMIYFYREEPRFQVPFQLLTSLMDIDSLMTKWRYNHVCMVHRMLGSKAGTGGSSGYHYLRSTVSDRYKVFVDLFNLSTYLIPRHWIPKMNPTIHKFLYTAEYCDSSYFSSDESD
How it was run: (§1)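 Reactions were stopped with TCA, converting N-formylkynurenine to kynurenine for quantitation, with IC50 by nonlinear regression. IDO: 6 nM enzyme, 10 μM L-Trp, 20 min RT. TDO: 1 nM enzyme, 350 μM L-Trp, 70 min RT, both in pH 6.5 buffer.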

[2] = target: T2, Human Indoleamine 2,3-dioxygenase (IDO) (Homo sapiens, UniProt P14902); test: Human IDO enzymatic assay (kynurenine level); format: biochemical; conditions: 6 nM IDO, 10 μM L-Trp; geometric mean; read-out: IDO1 GMean: IC50 (μM) (Biochemical Assay)
T2 construct: His tag (N); made in house; host or cells: E. coli
T2 sequence (P14902 whole entry): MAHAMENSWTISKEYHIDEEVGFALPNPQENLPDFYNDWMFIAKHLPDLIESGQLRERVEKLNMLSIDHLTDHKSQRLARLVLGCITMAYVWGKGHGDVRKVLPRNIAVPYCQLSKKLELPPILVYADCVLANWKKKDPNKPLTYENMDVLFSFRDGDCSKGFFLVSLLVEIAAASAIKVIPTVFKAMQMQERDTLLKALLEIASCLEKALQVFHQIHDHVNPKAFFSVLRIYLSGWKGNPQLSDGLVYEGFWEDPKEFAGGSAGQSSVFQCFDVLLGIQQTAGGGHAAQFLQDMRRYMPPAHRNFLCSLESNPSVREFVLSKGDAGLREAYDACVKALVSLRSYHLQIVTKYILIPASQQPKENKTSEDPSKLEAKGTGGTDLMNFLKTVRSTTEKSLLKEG
How it was run: as §1

IC50 [1] [µM]	IC50 [2] [µM]	Compound
0.0001 to 10	0.0001 to 10	O=C(Nc1ccc(F)cc1)N1CCC(C(F)(F)[C@H](O)c2c3c(cc4cn[nH]c24)CC3)CC1 [Compound P-0637, (R)-4-(2-(5,6-dihydro-1H-cyclobuta[f]indazol-7-yl)-1,1-difluoro-2-hydroxyethyl)-N-(4-fluorophenyl) piperidine-1-carboxamide]
0.0001 to 10	0.0001 to 10	N#Cc1ccc(NC(=O)N2CCC(C(F)(F)[C@H](O)c3c4c(cc5cn[nH]c35)CC4)CC2)cc1 [Compound P-0638, (R)-N-(4-cyanophenyl)-4-(2-(5,6-dihydro-1H-cyclobuta[f]indazol-7-yl)-1,1-difluoro-2-hydroxyethyl) piperidine-1-carboxamide]
0.0001 to 10	0.0001 to 10	CC1(C(O)c2cc(Cl)c(F)c3cn[nH]c23)CC(F)(F)C1 (stereo not drawn) [Compound P-0650, (5-chloro-4-fluoro-1H-indazol-7-yl)(3,3-difluoro-1-methylcyclobutyl)methanol]
0.0001 to 10	0.0001 to 10	O=C(Cc1ccnc(Cl)c1)N1CCC(C(F)(F)C(O)c2cc(Cl)cc3[nH]ncc23)CC1 (stereo not drawn) [Compound P-0657, 1-(4-(2-(6-chloro-1H-indazol-4-yl)-1,1-difluoro-2-hydroxyethyl)piperidin-1-yl)-2-(2-chloropyridin-4-yl)ethan-1-one]
0.0001 to 10	0.0001 to 10	CC(C)(C1CCN(C(=O)Nc2ccc(F)cn2)CC1)[C@H](O)c1cc(Cl)cc2cn[nH]c12 [Compound P-0658, (S)-4-(1-(5-chloro-1H-indazol-7-yl)-1-hydroxy-2-methylpropan-2-yl)-N-(5-fluoropyridin-2-yl)piperidine-1-carboxamide]
0.0001 to 10	0.0001 to 10	CC(C)(C1CCN(C(=O)C2(F)CC2)CC1)[C@H](O)c1cc(Cl)cc2cn[nH]c12 [Compound P-0659, (S)-(4-(1-(5-chloro-1H-indazol-7-yl)-1-hydroxy-2-methylpropan-2-yl)piperidin-1-yl)(1-fluorocyclopropyl) methanone]
0.0001 to 10	0.0001 to 10	CC(C)(C1CCN(C(=O)Nc2ccc(F)cc2)CC1)C(O)c1cc(Cl)cc2[nH]ncc12 (stereo not drawn) [Compound P-0660, 4-(1-(6-chloro-1H-indazol-4-yl)-1-hydroxy-2-methylpropan-2-yl)-N-(4-fluorophenyl) piperidine-1-carboxamide]
0.0001 to 10	0.0001 to 10	CC(C)(C1CCN(C(=O)C2(F)CC2)CC1)C(O)c1cc(Cl)cc2[nH]ncc12 (stereo not drawn) [Compound P-0661, (4-(1-(6-chloro-1H-indazol-4-yl)-1-hydroxy-2-methylpropan-2-yl)piperidin-1-yl)(1-fluorocyclopropyl) methanone]
0.0001 to 10	0.0001 to 10	CN(C)C(=O)N1CCC(C(C)(C)[C@H](O)c2cc(Cl)cc3cn[nH]c23)CC1 [Compound P-0662, (S)-4-(1-(5-chloro-1H-indazol-7-yl)-1-hydroxy-2-methylpropan-2-yl)-N,N-dimethylpiperidine-1-carboxamide]
0.0001 to 10	0.0001 to 10	CC(C)(C1CCN(C(=O)C(F)(F)F)CC1)[C@H](O)c1cc(Cl)cc2cn[nH]c12 [Compound P-0663, (S)-1-(4-(1-(5-chloro-1H-indazol-7-yl)-1-hydroxy-2-methylpropan-2-yl)piperidin-1-yl)-2,2,2-trifluoroethan-1-one]
0.0001 to 10	0.0001 to 10	CC(C)(C1CCN(C(=O)NCCCO)CC1)[C@H](O)c1cc(Cl)cc2cn[nH]c12 [Compound P-0665, (S)-4-(1-(5-chloro-1H-indazol-7-yl)-1-hydroxy-2-methylpropan-2-yl)-N-(3-hydroxypropyl) piperidine-1-carboxamide]
0.0001 to 10	0.0001 to 10	CC(C)(O)CNC(=O)N1CCC(C(C)(C)[C@H](O)c2cc(Cl)cc3cn[nH]c23)CC1 [Compound P-0666, (S)-4-(1-(5-chloro-1H-indazol-7-yl)-1-hydroxy-2-methylpropan-2-yl)-N-(2-hydroxy-methylpropyl) piperidine-1-carboxamide]
0.0001 to 10	0.0001 to 10	CC(C)(C1CCN(C(=O)NCC2(O)COC2)CC1)[C@H](O)c1cc(Cl)cc2cn[nH]c12 [Compound P-0667, (S)-4-(1-(5-chloro-1H-indazol-7-yl)-1-hydroxy-2-methylpropan-2-yl)-N-((3-hydroxyoxetan-3-yl)methyl)piperidine-1-carboxamide]
0.0001 to 10	0.0001 to 10	C[C@H](CO)NC(=O)N1CCC(C(C)(C)[C@H](O)c2cc(Cl)cc3cn[nH]c23)CC1 [Compound P-0668, 4-((S)-1-(5-chloro-1H-indazol-7-yl)-1-hydroxy-2-methylpropan-2-yl)-N-((R)-1-hydroxypropan-2-yl)piperidine-1-carboxamide]
0.0001 to 10	0.0001 to 10	C[C@@H](CO)NC(=O)N1CCC(C(C)(C)[C@H](O)c2cc(Cl)cc3cn[nH]c23)CC1 [Compound P-0669, 4-((S)-1-(5-chloro-1H-indazol-7-yl)-1-hydroxy-2-methylpropan-2-yl)-N-((S)-1-hydroxypropan-2-yl)piperidine-1-carboxamide]
0.0001 to 10	0.0001 to 10	C[C@@H](O)CNC(=O)N1CCC(C(C)(C)[C@H](O)c2cc(Cl)cc3cn[nH]c23)CC1 [Compound P-0670, 4-((S)-1-(5-chloro-1H-indazol-7-yl)-1-hydroxy-2-methylpropan-2-yl)-N-((R)-2-hydroxypropyl) piperidine-1-carboxamide]
0.0001 to 10	0.0001 to 10	C[C@H](O)CNC(=O)N1CCC(C(C)(C)[C@H](O)c2cc(Cl)cc3cn[nH]c23)CC1 [Compound P-0671, 4-((S)-1-(5-chloro-1H-indazol-7-yl)-1-hydroxy-2-methylpropan-2-yl)-N-((S)-2-hydroxypropyl) piperidine-1-carboxamide]
0.0001 to 10	0.0001 to 10	CC(C)(C1CCN(C(=O)NC2(C#N)CC2)CC1)[C@H](O)c1cc(Cl)cc2cn[nH]c12 [Compound P-0672, (S)-4-(1-(5-chloro-1H-indazol-7-yl)-1-hydroxy-2-methylpropan-2-yl)-N-(1-cyanocyclopropyl) piperidine-l-carboxamide]
0.0001 to 10	0.0001 to 10	CC(C)(C1CCN(C(=O)NCC(=O)O)CC1)[C@H](O)c1cc(Cl)cc2cn[nH]c12 [Compound P-0673, (S)-(4-(1-(5-chloro-1H-indazol-7-yl)-1-hydroxy-2-methylpropan-2-yl)piperidine-1-carbonyl)glycine]
0.0001 to 10	0.0001 to 10	CC(C)(C1CCN(C(=O)NC2CCS(=O)(=O)CC2)CC1)[C@H](O)c1cc(Cl)cc2cn[nH]c12 [Compound P-0674, (S)-4-(1-(5-chloro-1H-indazol-7-yl)-1-hydroxy-2-methylpropan-2-yl)-N-(1,1-dioxidotetrahydro-2H-thiopyran-4-yl)piperidine-1-carboxamide]
0.0001 to 10	0.0001 to 10	CC(C)(C1CCN(C(=O)NCC2(C#N)CC2)CC1)[C@H](O)c1cc(Cl)cc2cn[nH]c12 [Compound P-0675, (S)-4-(1-(5-chloro-1H-indazol-7-yl)-1-hydroxy-2-methylpropan-2-yl)-N-((1-cyanocyclopropyl)methyl)piperidine-1-carboxamide]
0.0001 to 10	0.0001 to 10	CN1CCN(Cc2ccc(NC(=O)N3CCC(C(C)(C)[C@H](O)c4cc(Cl)cc5cn[nH]c45)CC3)cc2)CC1 [Compound P-0676, (S)-4-(1-(5-chloro-1H-indazol-7-yl)-1-hydroxy-2-methylpropan-2-yl)-N-(4-((4-methylpiperazin-1-yl)methyl)phenyl) piperidine-1-carboxamide]
0.0001 to 10	0.0001 to 10	CC(C)(C1CCN(C(=O)NCCNS(C)(=O)=O)CC1)[C@H](O)c1cc(Cl)cc2cn[nH]c12 [Compound P-0677, (S)-4-(1-(5-chloro-1H-indazol-7-yl)-1-hydroxy-2-methylpropan-2-yl)-N-(2-(methylsulfonamido)ethyl)piperidine-1-carboxamide]
0.0001 to 10	0.0001 to 10	CC(C)(C1CCN(C(=O)NCCN2CCCS2(=O)=O)CC1)[C@H](O)c1cc(Cl)cc2cn[nH]c12 [Compound P-0678, (S)-4-(1-(5-chloro-1H-indazol-7-yl)-1-hydroxy-2-methylpropan-2-yl)-N-(2-(1,1-dioxidoisothiazolidin-2-yl)ethyl)piperidine-1-carboxamide]
0.0001 to 10	0.0001 to 10	CC(C)(C1CCN(C(=O)NCc2cccnc2)CC1)[C@H](O)c1cc(Cl)cc2cn[nH]c12 [Compound P-0679, (S)-4-(1-(5-chloro-1H-indazol-7-yl)-1-hydroxy-2-methylpropan-2-yl)-N-(pyridin-3-ylmethyl)piperidine-1-carboxamide]
0.0001 to 10	0.0001 to 10	CC(C)(C1CCN(C(=O)NCc2cnccn2)CC1)[C@H](O)c1cc(Cl)cc2cn[nH]c12 [Compound P-0680, (S)-4-(1-(5-chloro-1H-indazol-7-yl)-1-hydroxy-2-methylpropan-2-yl)-N-(pyrazin-2-ylmethyl)piperidine-1-carboxamide]
0.0001 to 10	0.0001 to 10	CC(C)(C1CCN(C(=O)NCc2ccnnc2)CC1)[C@H](O)c1cc(Cl)cc2cn[nH]c12 [Compound P-0681, (S)-4-(1-(5-chloro-1H-indazol-7-yl)-1-hydroxy-2-methylpropan-2-yl)-N-(pyridazin-4-ylmethyl)piperidine-1-carboxamide]
